Several values for one entry are separate records, joined by “and”; a condition that tells them apart may be missing. Identical values can stand only once.
How the values were obtained:
[1] = Ultraviolet absorption (maximum absorption wavelength and molecular extinction coefficient); assay type: physicochemical; settings: for Maximum absorption wavelength (λmax): UV-A region (320 to 380 nm); for Molecular extinction coefficient (ε): at λmax in the UV-A region
Description: The properties of kynurenine and the derivative thereof are collectively shown below in Table 1, along with the properties of "Palsole A". As apparently shown in the table and Fig. 1, the maximum absorption lengths (λmax) of kynurenine and the derivative thereof preferably reside in 360 to 365 nm in the UV-A region (320 to 380 nm) with the highest risk of direct darkening of skin. Kynurenine has a molecular extinction coefficient (ε) functioning as a marker of the intensity of ultraviolet absorption (ε = 4,000), which is about 1/10 of the commercially available Palsole A (ε = 36,000). […] Accordingly, such large quantity considered abnormal is required to be blended. Table 1 In addition to the UV-A region, kynurenine and the derivative thereof have the maximum absorption wavelength at 253 nm with the molecular extinction coefficient of 6,700. In other words, kynurenine and the derivative thereof exert absorption in the UV-C region ([…]). The ultraviolet ray in the UV-C region is generally absorbed in the ozone layer and therefore never reaches ground surface, so the absorption in the region is not meaningful as cosmetics. Kynurenine and the derivative thereof never exert absorption in the UV-B region (290 to 320 nm) in the erythema curve region with the highest risk in sunlight. Thus, an effect on the prevention of erythema against ultraviolet ray in the UV-B region cannot be expected.

5 bacterial strains = experiment: Ames test (mutagenicity); assay type: cell-based
Description: The kynurenine represented by the general formula I and substances relating thereto are metabolic intermediates of tryptophan and are essentially present in biological organisms; and the kynurenine and substances relating thereto are contained at particularly large quantities in the eyes of human new born babies and infants but are decreased over aging [J. Biochem., Vol. 89, 103 (1981)], and have therefore no safety problem.
The generated brown pigment is present in the eye, skin and wing of Arthropoda and Mollusca. The brown pigment is also contained in human eye. Because the brown pigment is widely distributed in animals in such manner, the generated pigment is greatly safe. The brown pigment (xanthommatin) was chemically synthesized according to the method in Angew. Chem., 69, Jahrg. 16 (1957) and subjected to Ames test.

tyrosinase [2] = experiment: Tyrosinase activity-inhibiting effect; assay type: biochemical
Description: It was expectantly assumed that kynurenine and the derivative thereof inhibited tyrosinase and thereby suppressed the generation of black melanin so that kynurenine and the derivative thereof could be utilized as an ingredient for preventing spot and freckle and the deposition of pigments.

tyrosinase [3] = experiment: Test Example 1: disappearance of kynurenine / 3-hydroxykynurenine and pigment generation with tyrosinase and dopa or tyrosine; assay type: biochemical; settings: 3.5 hours; for disappearance of kynurenine or 3-hydroxykynurenine: assayed at 355 nm
Protocol: 5 units of tyrosinase, 2.5 µmol of dopa or tyrosine, and 1 mg of kynurenine sulfate salt or 3-hydroxykynurenine dihydrate were dissolved in 0.1M phosphate buffer, pH 7.0 to a final volume of 5 ml and the resulting solution was agitated at ambient temperature for 3.5 hours; thereafter, the disappearance of kynurenine or 3-hydroxykynurenine was assayed at 355 nm, which corresponds to the λmax of kynurenine and 3-hydroxykynurenine in UV-A. The contents of the individual tests are shown below in Table 2. Table 2 [table]

[4] = Tests 1 and 2: tyrosinase +, dopa/tyrosine +, air +, pH 7.0, ambient temperature

| Structure (SMILES) | Maximum absorption wavelength (λmax) [1] [nm] | Molecular extinction coefficient (ε) [1] | mutagenicity (5 bacterial strains) | molecular extinction coefficient (ε) relative to Palsole A ([1]; UV-A region) | tyrosinase-inhibiting ability (tyrosinase [2]) | disappearance of kynurenine or 3-hydroxykynurenine (tyrosinase [3]; Test 5: tyrosinase +, dopa/tyrosine +, no air) | pigment generation (tyrosinase [3]; [4]) | disappearance of kynurenine or 3-hydroxykynurenine (tyrosinase [3]; [4]) | disappearance of kynurenine or 3-hydroxykynurenine (tyrosinase [3]; Test 3: tyrosinase with thermal treatment, dopa/tyrosine +, air +) | disappearance of kynurenine or 3-hydroxykynurenine (tyrosinase [3]; Test 4: tyrosinase +, no dopa/tyrosine, air +) |
| --- | --- | --- | --- | --- | --- | --- | --- | --- | --- | --- |
| COc1ccc(C(=O)CC(=O)c2ccc(C(C)(C)C)cc2)cc1 [Palsole A, reference compound] | 355 | 36,000 and 35,000 | – | – | – | – | – | – | – | – |
| NC(CC(=O)c1cccc2oc3cc(=O)c4[nH]c(C(=O)O)cc(=O)c4c-3nc12)C(=O)O (stereo not drawn) [xanthommatin] | – | – | No mutagenicity was observed | – | – | – | – | – | – | – |
| Nc1ccccc1C(=O)CC(N)C(=O)O (stereo not drawn) [kynurenine] | 355 | 4,000 | – | about 1/10 | never has any ability of tyrosinase inhibition or has the ability insufficiently | no disappearance of kynurenine observed. | pigment generated | disappeared | – | – |
| Nc1c(O)cccc1C(=O)CC(N)C(=O)O (stereo not drawn) [3-hydroxykynurenine] | 355 | – | – | – | – | – | pigment generated | disappeared | no disappearance of 3-hydroxykynurenine observed. | no disappearance of 3-hydroxykynurenine observed. |

Source: patent EP1038516A1, “Cosmetic composition comprising kynurenine” (Uchikuga, Saburoh, priority 1999, dated 2000)
